Reference: the supplement of paper PMC8671470

Tests used:
Conditions in all cases: 72 h
HL-60 [1] = experiment: cell viability (% survival relative to DMSO control); higher = less cytotoxic
In short: (§1)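 In 384-well plates, the full library was rescreened in duplicate on HL-60 cells in RPMI 1640 with 10% FBS, at 1–10,000 nM in five tenfold concentrations, for 72 h at 37 °C, 5% CO2. Each run also held DMSO or 100 nM of one of three metabolic inhibitors. Viability was measured by CellTiter-Glo and normalised to DMSO wells and to wells with proteasome inhibitor, present at 10 μM. Any area under the curve comes from four-parameter log-logistic fitting with drc and PharmacoGx.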

HL-60 [2] = experiment: area under dose-response curve (viability, 1 nM-10 uM) (fraction (0-1)); higher = more sensitive
In short: as §1

KCL-22 [3] = system: KCL-22
In short: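 Each of fifteen myeloid leukaemia cell lines was seeded in RPMI 1640 at a density titrated to its linear growth range. The cells were incubated for 72 h at 37 °C and 5% CO2 with compounds at five tenfold doses from 1 to 10,000 nM, in duplicate. After ATP luminescence was normalised to vehicle and to a positive control at 10 µM, four-parameter log-logistic curves were fitted. These curves gave the IC50.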

KG-1 = experiment: cell viability (% survival relative to DMSO control, bortezomib = 0%); higher = less cytotoxic
In short: (§2)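 Percent survival figures are means of duplicate wells. They were obtained by CellTiter-Glo luminescence after 10 AML and 5 CML cell lines spent 72 h at 37 °C with 5% CO2 in 384-well plates with compounds at 1, 10, 100, 1000 or 10000 nM. Vehicle was set to 100% and a 10 µM positive control to 0%.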

HL-60 [4] = experiment: as above
In short: as §2

LAMA-84 = experiment: as above
In short: as §2

KCL-22 [5] = experiment: as above
In short: as §2

ML-2 = experiment: as above
In short: as §2

K-562 = experiment: as above
In short: as §2

HEL = experiment: as above
In short: as §2

SHI-1 = experiment: as above
In short: as §2

THP-1 = experiment: as above
In short: as §2

MOLM-13 = experiment: as above
In short: as §2

MV4-11 = experiment: as above
In short: as §2

BV-173 = experiment: as above
In short: as §2

NOMO-1 = experiment: as above
In short: as §2

KU-812 = experiment: as above
In short: as §2

Mono-Mac-6 = experiment: as above
In short: as §2

O=C(CCl)N(CCCNC(=O)C(F)(F)F)c1ccc([N+](=O)[O-])cc1 [ML175]
cell viability [%], HL-60 [1]
Conditions | 0.001 µM | 0.01 µM | 0.1 µM | 1 µM | 10 µM
co-treatment: AZD3965 100 nM | 103 | 100 | 102.27 | 104 | 0.129
co-treatment: DMSO vehicle | 104 | 103 | 99.79 | 99.8 | -1.45
co-treatment: GSK2194069 100 nM | 100 | 92.97 | 98.3 | 95.2 | -1.73
co-treatment: pictilisib 100 nM | 101 | 94.4 | 98.5 | 95.1 | 1.1

Conditions | area under dose-response curve, co-treatment: AZD3965 100 nM | area under dose-response curve, co-treatment: DMSO vehicle | area under dose-response curve, co-treatment: GSK2194069 100 nM | area under dose-response curve, co-treatment: pictilisib 100 nM | cell viability, 1 nM [%] | cell viability, 10 nM [%] | cell viability, 100 nM [%] | cell viability, 1000 nM [%] | cell viability, 10000 nM [%]
BV-173 | – | – | – | – | 122 | 99.9 | 101 | -0.0318 | -0.742
HEL | – | – | – | – | 105 | 106 | 96.3 | -0.0497 | -0.423
HL-60 [2] | 0.125 | 0.133 | 0.14 | 0.136 | – | – | – | – | –
HL-60 [4] | – | – | – | – | 104 | 111 | 110 | 83.4 | -1.03
K-562 | – | – | – | – | 101 | 91.9 | 99.6 | 95.7 | -0.364
KCL-22 [5] | – | – | – | – | 113 | 118 | 85 | 82.5 | -0.718
KG-1 | – | – | – | – | 109 | 109 | 96.8 | 6.67 | -0.879
KU-812 | – | – | – | – | 99.1 | 96.8 | 89.7 | 81.3 | -0.456
LAMA-84 | – | – | – | – | 107 | 106 | 90.5 | 89.9 | -0.333
ML-2 | – | – | – | – | 97 | 102 | 94.5 | 0.519 | -0.998
MOLM-13 | – | – | – | – | 89.5 | 115 | 92.4 | 0.57 | -1.51
MV4-11 | – | – | – | – | 93.6 | 93 | 95.6 | -0.18 | -0.931
Mono-Mac-6 | – | – | – | – | 101 | 104 | 98.2 | 44.6 | -1.09
NOMO-1 | – | – | – | – | 96.3 | 97.8 | 97.8 | 0.0839 | -0.851
SHI-1 | – | – | – | – | 95 | 127 | 85.1 | 107 | -0.834
THP-1 | – | – | – | – | 99.7 | 102 | 91.9 | 94.2 | -2.38

Conditions | IC50 (cell viability) [nM]
KCL-22 [3] | 2070

c1ccc2c(c1)SCc1c-2[nH]c2ccccc12
cell viability [%], HL-60 [1]
Conditions | 0.001 µM | 0.01 µM | 0.1 µM | 1 µM | 10 µM
co-treatment: AZD3965 100 nM | 80.9 | 94.8 | 107 | 117 | 94.6
co-treatment: DMSO vehicle | 102.4 | 101.01 | 98.13 | 101 | 96.9
co-treatment: GSK2194069 100 nM | 96.7 | 100.7 | 103 | 96.4 | 93.2
co-treatment: pictilisib 100 nM | 90.3 | 86.7 | 104 | 105 | 98.9

Conditions | area under dose-response curve, co-treatment: AZD3965 100 nM | area under dose-response curve, co-treatment: DMSO vehicle | area under dose-response curve, co-treatment: GSK2194069 100 nM | area under dose-response curve, co-treatment: pictilisib 100 nM | cell viability, 1 nM [%] | cell viability, 10 nM [%] | cell viability, 100 nM [%] | cell viability, 1000 nM [%] | cell viability, 10000 nM [%]
BV-173 | – | – | – | – | 98.6 | 113 | 114 | 27.6 | -0.875
HEL | – | – | – | – | 106 | 102 | 94.6 | 94.9 | 7
HL-60 [2] | < 0.0301 | < 0.0301 | < 0.0301 | < 0.0301 | – | – | – | – | –
HL-60 [4] | – | – | – | – | 100 | 95.7 | 102 | 83 | 23.4
K-562 | – | – | – | – | 100 | 100 | 103 | 108 | 12
KCL-22 [5] | – | – | – | – | 96.1 | 93.2 | 100 | 80.9 | 1.24
KG-1 | – | – | – | – | 104 | 102 | 125 | 34.7 | -0.763
KU-812 | – | – | – | – | 99.6 | 110 | 105 | 95.3 | 0.3
LAMA-84 | – | – | – | – | 106 | 103 | 111 | 109 | 16.6
ML-2 | – | – | – | – | 106 | 110 | 89.8 | 69 | -1.13
MOLM-13 | – | – | – | – | 99.2 | 87 | 100 | 78.6 | 23.9
MV4-11 | – | – | – | – | 101 | 101 | 111 | 52.8 | -0.521
Mono-Mac-6 | – | – | – | – | 97.8 | 105 | 103 | 95.3 | -0.27
NOMO-1 | – | – | – | – | 97 | 107 | 108 | 98.2 | 0.816
SHI-1 | – | – | – | – | 101 | 96 | 89.1 | 84.7 | 3.75
THP-1 | – | – | – | – | 105 | 100 | 106 | 93.4 | 33.6

Conditions | IC50 (cell viability) [nM]
KCL-22 [3] | 2180
